One experiment addresses BACE1 (Homo sapiens, UniProt P56817). The experiment can be described thus: In vitro enzymatic BACE FRET assay. The class given is biochemical. Here is the method:
In Vitro Enzymatic BACE FRET (fluorescence resonance energy transfer) Assay (Enzyme Assay data in the Example Table I)
The assay buffer used in this screen is 0.05 M acetate, pH 4.2, 10% DMSO final, 100 uM genapol (which is a nonionic detergent, below its Critical Micelle Concentration). […] This assay is effectively started by the addition of FRET substrate (50 nM) and the combination is incubated for one hour. The FRET assay is terminated with by addition of Tris buffer, which raises the pH to neutrality, and the fluorescence is determined. The FRET substrate is a peptide with commercially available fluorophore and quencher, on opposite sides of the BACE cleavage site. Proteolytic cleavage of the FRET substrate releases quenching of fluorescence (excitation […] and […]).

Experiment [1] relates to Aβ40 in conditioned medium of cells expressing amyloid precursor protein. The experiment is described as follows: In vitro BACE cell-based assay (HEK cell assay, Aβ40 sandwich ELISA). Conditions: Homo sapiens, HEK293; average IC50; Aβ40 after 24 h incubation. In general terms: In an ELISA, binding on a coated surface is turned into a signal by an enzyme label.
The test system of another experiment is amyloid beta peptide. The experiment is described as follows: In vivo inhibition of beta-secretase (CSF and brain abeta reduction). Conditions: rat, PD dose of 10 mg/kg, after 4 hrs. The source says: Several animal models, including mouse, rat, dog, and monkey, may be used to screen for inhibition of beta-secretase activity in vivo following administration of a test compound sample. Animals used in this invention can be wild type, transgenic, or gene knockout animals. For example, the Tg2576 mouse model, prepared and conducted as described in Hsiao et al., 1996, Science 274, 99-102, and other non-transgenic or gene knockout animals are useful to analyze in vivo inhibition of Amyloid beta peptide (Abeta) production in the presence of inhibitory test compounds. Generally, 2 to 18 month old Tg2576 mice, gene knockout mice or non-transgenic animals are administered test compounds formulated in vehicles, such as cyclodextran, phosphate buffers, hydroxypropyl methylcellulose or other suitable vehicles. One to twenty-four hours following the administration of compound, animals are sacrificed, and brains as well as cerebrospinal fluid (CSF) and plasma are removed for analysis of A-beta levels and drug or test compound concentrations (Dovey et al., 2001, Journal of Neurochemistry, 76,173-181) Beginning at time 0, animals are administered by oral gavage, or other means of delivery such as intravenous injection, an inhibitory test compound of up to 100 mg/kg in a standard, conventional formulation, such as 2% hydroxypropyl methylcellulose, 1% Tween80. A separate group of animals receive 2% hydroxypropyl methylcellulose, 1% Tween80 alone, containing no test compound, and serve as a vehicle-control group. At the end of the test period, animals are sacrificed and brain tissues, plasma or cerebrospinal fluid are collected. Brains are either homogenized in 10 volumes (w/v) of 0.2% diethylamine (DEA) in 50 mM NaCl (Best et al., 2005, Journal of Pharmacology and Experimental Therapeutics, 313, 902-908), or in 10 volumes of 0.5% TritonX-100 in Tris-buffered saline (pH at about 7.6). Homogenates are centrifuged at 355,000 g, 4° C. for 30 minutes. CSF or brain supernatants are then analyzed for the presence of A-beta peptide by specific sandwich ELISA assays based on ECL (Electrochemiluminescence) technology. For example, rat Abeta40 is measured using biotinylated-4G8 (Signet) as a capture antibody and Fab40 (an in-house antibody specific to the C-terminal of Abeta40) as a detection antibody. For example, 4 hours after administration of 30 mg/kg oral dose of the test compound in 2% hydroxypropyl methylcellulose, 1% Tween80 (pH2.2) to 200 g male Sprague Dawley rats, amyloid beta peptide levels are measured for reduction by X % and Y % in cerebrospinal fluid and brain, respectively, when compared to the levels measured in the vehicle-treated or control mice.
Actual vehicles used: Oral: 2% HPMC, 1% Tween80, pH 2.2 […]

The source of these data is patent US8921363B2, “Derivatives of 1 H-isoindol-3-amine, 1 H-iso-aza-indol-3amine, 3,4-dihydroisoquinolin-1-amine, and 1,4-dihydroisoquinolin-3-amine as beta-secretase inhibitors” (Amgen Inc., priority 2010, dated 2014).

A word on the pIC50: it is the IC50 on a negative log10 scale, so that one unit is a factor of ten.

pIC50: −log10 of the molar value.

Chain of BACE1 (P56817 46-501): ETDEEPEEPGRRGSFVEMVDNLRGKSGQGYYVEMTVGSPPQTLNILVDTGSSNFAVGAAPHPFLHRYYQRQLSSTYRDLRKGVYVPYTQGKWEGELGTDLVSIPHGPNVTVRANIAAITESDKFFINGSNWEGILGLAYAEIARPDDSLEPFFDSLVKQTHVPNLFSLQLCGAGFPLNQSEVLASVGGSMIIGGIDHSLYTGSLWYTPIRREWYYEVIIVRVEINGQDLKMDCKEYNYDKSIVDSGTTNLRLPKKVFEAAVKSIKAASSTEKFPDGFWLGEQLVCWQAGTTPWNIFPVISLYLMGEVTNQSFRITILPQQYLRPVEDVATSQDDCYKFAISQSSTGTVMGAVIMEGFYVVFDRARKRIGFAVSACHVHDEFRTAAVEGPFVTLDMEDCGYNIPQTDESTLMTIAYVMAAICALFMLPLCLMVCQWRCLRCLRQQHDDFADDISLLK

As to `NC1=N[C@]2(c3cc(-c4cccnc4F)ccc3Oc3c2cc(C2=CCCOC2)nc3F)c2ccccc21` (single isomer, unassigned) [Example 7-B], at BACE1, the pIC50 is 9.30. The pIC50 in experiment [1] is 8.30. In the experiment on amyloid beta peptide, the CSF abeta reduction came out at 7% and the brain abeta reduction stood at 10%.

Regarding `NC1=N[C@@]2(c3cc(Br)ccc3Oc3c2cc(Cl)nc3F)c2cnccc21` (single isomer, unassigned) [Example 14c-1], the negative logarithm of the IC50 (pIC50) (at BACE1; in experiment [1]) was below 5.00 each time.

Take `NC1=N[C@]2(c3cc(Br)ccc3Oc3c2cc(Cl)nc3F)c2cnccc21` (single isomer, unassigned) [Example 14c-2]: the pIC50 on BACE1 is 5.46; in experiment [1], below 5.00.

For the compound `NC1=N[C@@]2(c3cc(Br)ccc3Oc3c2cc(Cl)nc3F)c2cccnc21` (single isomer, unassigned) [Example 17c-1], the pIC50 (on BACE1; in experiment [1]) was below 5.00 in each case.

On to `NC1=N[C@]2(c3cc(Br)ccc3Oc3c2cc(Cl)nc3F)c2cccnc21` (single isomer, unassigned) [Example 17c-2], for which the pIC50 is 5.46 on BACE1 and below 5.00 in experiment [1].

As to `NC1=NC2(c3cc(-c4cccnc4F)ccc3Oc3c2cc(Cl)nc3F)c2ccccc21` (stereo not drawn) [Example 5d, 3-chloro-1-fluoro-7-(2-fluoropyridin-3-yl)spiro[chromeno[2,3-c]pyridine-5,1′-isoindol]-3′-amine], the results for the pIC50 (on BACE1; in experiment [1]) were 8.22 and 6.65, respectively.

As to `NC1=N[C@]2(c3cc(-c4cccnc4F)ccc3Oc3c2cc(C2=CCCOC2)nc3F)c2cnccc21` [Example 14-E, (S)-3-(5,6-dihydro-2H-pyran-3-yl)-1-fluoro-7-(2-fluoropyridin-3-yl)spiro[chromeno[2,3-c]pyridine-5,3′-pyrrolo[3,4-c]pyridin]-1′-amine], the negative logarithm of the IC50 (pIC50) was 9.30 at BACE1 and 8.70 in experiment [1].

`NC1=NC2(c3cc(Br)ccc3Oc3c2cc(Cl)nc3F)c2cnccc21` (stereo not drawn) [Example 14c, 7-bromo-3-chloro-1-fluorospiro[chromeno[2,3-c]pyridine-5,3′-pyrrolo[3,4-c]pyridin]-1′-amine]: the pIC50 at BACE1 is 5.34; in experiment [1] it was below 5.00.

In the case of `NC1=NC2(c3cc(-c4cccnc4F)ccc3Oc3c2cc(Cl)nc3F)c2cnccc21` (stereo not drawn) [Example 14d, 3-chloro-1-fluoro-7-(2-fluoropyridin-3-yl)spiro[chromeno[2,3-c]pyridine-5,3′-pyrrolo[3,4-c]pyridin]-1′-amine], the results for the pIC50 (at BACE1; in experiment [1]) were 8.43 and 6.11, respectively.

As for `NC1=N[C@@]2(c3cc(-c4cccnc4F)ccc3Oc3c2cc(Cl)nc3F)c2cnccc21` [Example 14d-1, (R)-3-chloro-1-fluoro-7-(2-fluoropyridin-3-yl)spiro[chromeno[2,3-c]pyridine-5,3′-pyrrolo[3,4-c]pyridin]-1′-amine], the pIC50 on BACE1 was 5.18; in experiment [1], below 5.00.

Take `NC1=N[C@]2(c3cc(-c4cccnc4F)ccc3Oc3c2cc(Cl)nc3F)c2cnccc21` [Example 14d-2, (S)-3-chloro-1-fluoro-7-(2-fluoropyridin-3-yl)spiro[chromeno[2,3-c]pyridine-5,3′-pyrrolo[3,4-c]pyridin]-1′-amine]: the negative logarithm of the IC50 (pIC50) at BACE1 was 8.60; in experiment [1], 7.45.

For `NC1=NC2(c3cc(Br)ccc3Oc3cnc(Cl)cc32)c2ccncc21` (stereo not drawn) [Example 16, 7-bromo-3-chlorospiro[chromeno[2,3-c]pyridine-5,1′-pyrrolo[3,4-c]pyridin]-3′-amine], the figures for the pIC50 (at BACE1; in experiment [1]) were 5.04 and below 5.00, respectively.

`NC1=N[C@]2(c3cc(-c4cccnc4F)ccc3Oc3c2cc(C2=CCCOC2)nc3F)c2cccnc21` [Example 17-F, (S)-3-(5,6-dihydro-2H-pyran-3-yl)-1-fluoro-7-(2-fluoropyridin-3-yl)spiro[chromeno[2,3-c]pyridine-5,5′-pyrrolo[3,4-b]pyridin]-7′-amine]: the pIC50 was 9.15 at BACE1 and 8.52 in experiment [1].

For `NC1=N[C@]2(c3cc(-c4cccnc4F)ccc3Oc3c2cc(N2CCOCC2)nc3F)c2cccnc21` [Example 17-G, (S)-1-fluoro-7-(2-fluoropyridin-3-yl)-3-morpholinospiro[chromeno[2,3-c]pyridine-5,5′-pyrrolo[3,4-b]pyridin]-7′-amine], the negative logarithm of the IC50 (pIC50) at BACE1 is 9.00; in experiment [1], 8.70.

For the compound `NC1=NC2(c3cc(Br)ccc3Oc3c2cc(Cl)nc3F)c2cccnc21` (stereo not drawn) [Example 17c, 7-bromo-3-chloro-1-fluorospiro[chromeno[2,3-c]pyridine-5,5′-pyrrolo[3,4-b]pyridin]-7′-amine], the pIC50 (on BACE1; in experiment [1]) was below 5.00 throughout.

As to `NC1=NC2(c3cc(-c4cccnc4F)ccc3Oc3c2cc(Cl)nc3F)c2cccnc21` (stereo not drawn) [Example 17d, 3-chloro-1-fluoro-7-(2-fluoropyridin-3-yl)spiro[chromeno[2,3-c]pyridine-5,5′-pyrrolo[3,4-b]pyridin]-7′-amine 2,2,2-trifluoroacetate], the pIC50 on BACE1 was 7.06; in experiment [1] it was 5.36.

`NC1=N[C@@]2(c3cc(-c4cccnc4F)ccc3Oc3c2cc(Cl)nc3F)c2cccnc21` [Example 17d-1, (R)-3-chloro-1-fluoro-7-(2-fluoropyridin-3-yl)spiro[chromeno[2,3-c]pyridine-5,5′-pyrrolo[3,4-b]pyridin]-7′-amine]: the pIC50 (on BACE1; in experiment [1]) was below 5.00 in each case.

As for `NC1=N[C@]2(c3cc(-c4cccnc4F)ccc3Oc3c2cc(Cl)nc3F)c2cccnc21` [Example 17d-2, (S)-3-chloro-1-fluoro-7-(2-fluoropyridin-3-yl)spiro[chromeno[2,3-c]pyridine-5,5′-pyrrolo[3,4-b]pyridin]-7′-amine], the values for the pIC50 (on BACE1; in experiment [1]) were 7.80 and 5.80, respectively.

For `NC1=N[C@]2(c3cc(-c4cccnc4F)ccc3Oc3c2cc(-c2ccnc(F)c2)nc3F)c2cccnc21` [Example 17e, (S)-1-fluoro-7-(2-fluoropyridin-3-yl)-3-(2-fluoropyridin-4-yl)spiro[chromeno[2,3-c]pyridine-5,5′-pyrrolo[3,4-b]pyridin]-7′-amine], the pIC50 at BACE1 was 9.15. This compound also gave a negative logarithm of the IC50 (pIC50) in experiment [1] of 8.15. In the experiment on amyloid beta peptide, this compound registered a CSF abeta reduction of 41% and a brain abeta reduction of 28%.

As to `NC1=NC2(c3ccccc3O1)c1cc(-c3cncnc3)ccc1Oc1cnc(-c3ccnc(F)c3)cc12` (stereo not drawn) [Example 20, 3′-(2-fluoropyridin-4-yl)-7′-(pyrimidin-5-yl)spiro[benzo[c][1,3]oxazine-4,5-chromeno[2,3-c]pyridin]-2-amine], the negative logarithm of the IC50 (pIC50) was 8.57 on BACE1 and 6.97 in experiment [1].

As for `NC1=NC2(c3cc(-c4cccnc4F)ccc3Oc3cnc(-c4ccnc(F)c4)cc32)c2ncccc2O1` (stereo not drawn) [Example 22, 7-(2-fluoropyridin-3-yl)-3-(2-fluoropyridin-4-yl)spiro[chromeno[2,3-c]pyridine-5,4′-pyrido[2,3-e][1,3]oxazin]-2′-amine], the negative-log IC50 (pIC50) was 8.00 at BACE1 and 6.09 in experiment [1].

For the compound `NC1=NC2(c3ccccc3O1)c1cc(-c3cccnc3)ccc1Oc1cnc(-c3ccnc(F)c3)cc12` (stereo not drawn) [Example 23, 3′-(2-fluoropyridin-4-yl)-7′-(pyridin-3-yl)spiro[benzo[e][1,3]oxazine-4,5′-chromeno[2,3-c]pyridin]-2-amine], the negative-log IC50 (pIC50) at BACE1 was 8.54; in experiment [1], 7.01.
